Reference: US20110263564A1, “PYRIDINE, BICYCLIC PYRIDINE AND RELATED ANALOGS AS SIRTUIN MODULATORS” (Sirtris Pharmaceuticals, Inc., priority 2008, published 2011)

Biological target: T1, SIRT1 (Homo sapiens, UniProt Q96EB6)
T1 sequence (Q96EB6 1-747): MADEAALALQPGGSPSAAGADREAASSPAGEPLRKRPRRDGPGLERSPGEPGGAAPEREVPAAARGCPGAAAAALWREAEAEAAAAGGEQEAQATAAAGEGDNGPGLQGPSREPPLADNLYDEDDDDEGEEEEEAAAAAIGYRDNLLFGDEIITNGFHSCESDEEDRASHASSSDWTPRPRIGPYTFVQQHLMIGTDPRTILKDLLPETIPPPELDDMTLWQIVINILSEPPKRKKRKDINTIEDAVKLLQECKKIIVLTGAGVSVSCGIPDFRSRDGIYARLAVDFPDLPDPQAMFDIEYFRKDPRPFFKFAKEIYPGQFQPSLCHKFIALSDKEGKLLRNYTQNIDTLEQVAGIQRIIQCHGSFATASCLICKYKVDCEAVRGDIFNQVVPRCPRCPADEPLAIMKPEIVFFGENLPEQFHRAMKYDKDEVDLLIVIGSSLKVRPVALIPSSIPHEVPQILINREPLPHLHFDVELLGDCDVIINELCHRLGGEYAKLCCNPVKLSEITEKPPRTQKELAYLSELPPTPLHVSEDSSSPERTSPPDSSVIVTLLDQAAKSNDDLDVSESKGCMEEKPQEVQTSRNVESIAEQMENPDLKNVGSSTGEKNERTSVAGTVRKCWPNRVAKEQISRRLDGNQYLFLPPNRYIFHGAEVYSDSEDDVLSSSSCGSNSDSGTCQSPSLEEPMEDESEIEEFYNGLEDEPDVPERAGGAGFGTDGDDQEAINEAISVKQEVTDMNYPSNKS
Assay: Mass spectrometry based assay of SIRT1 activity (deacetylation of a p53-based acetylated peptide)
Type: biochemical
Settings: 10 nM SIRT1, 0.5 μM peptide substrate, 120 μM βNAD+, 25 minutes at 25° C.; for Emax: read-out: % FOLD ACT. (percent maximum fold activation)
Source text: A mass spectrometry based assay was used to identify modulators of SIRT1 activity. The mass spectrometry based assay utilizes a peptide having 20 amino acid residues as follows: Ac-EE-K(biotin)-GQSTSSHSK(Ac)NleSTEG-K(5TMR)-EE-NH2 (SEQ ID NO: 1) wherein K(Ac) is an acetylated lysine residue and Nle is a norleucine. The peptide is labeled with the fluorophore 5TMR (excitation 540 nm/emission 580 nm) at the C-terminus. The sequence of the peptide substrate is based on p53 with several modifications. In addition, the methionine residue naturally present in the sequence was replaced with the norleucine because the methionine may be susceptible to oxidation during synthesis and purification.
The mass spectrometry assay is conducted as follows: 0.5 μM peptide substrate and 120 μM βNAD^+ is incubated with 10 nM SIRT1 for 25 minutes at 25° C. in a reaction buffer (50 mM Tris-acetate pH 8, 137 mM NaCl, 2.7 mM KCl, 1 mM MgCl2, 5 mM DTT, 0.05% BSA). Test compounds may be added to the reaction as described above. […] After the 25 minute incubation with SIRT1, 10 μL of 10% formic acid is added to stop the reaction. Reactions are sealed and frozen for later mass spec analysis. Determination of the mass of the substrate peptide allows for precise determination of the degree of acetylation (i.e. starting material) as compared to deacetylated peptide (product).
A control for inhibition of sirtuin activity is conducted by adding 1 μL of 500 mM nicotinamide as a negative control at the start of the reaction (e.g., permits determination of maximum sirtuin inhibition). A control for activation of sirtuin activity is conducted using 10 nM of sirtuin protein, with 1 μL of DMSO in place of compound, to determine the amount of deacetylation of the substrate at a given timepoint within the linear range of the assay. This timepoint is the same as that used for test compounds and, within the linear range, the endpoint represents a change in velocity.
For the above assay, SIRT1 protein was expressed and purified as follows. […] The protein was expressed by induction with 1 mM IPTG as an N-terminal His-tag fusion protein at 18° C. overnight and harvested at 30,000×g. Cells were lysed with lysozyme in lysis buffer (50 mM Tris-HCl, 2 mM Tris[2-carboxyethyl]phosphine (TCEP), 10 μM ZnCl2, 200 mM NaCl) and further treated with sonication for 10 min for complete lysis. The protein was purified over a Ni-NTA column (Amersham) and fractions containing pure protein were pooled, concentrated and run over a sizing column (Sephadex S200 26/60 global). The peak containing soluble protein was collected and run on an Ion-exchange column (MonoQ). Gradient elution (200 mM-500 mM NaCl) yielded pure protein. This protein was concentrated and dialyzed against dialysis buffer (20 mM Tris-HCl, 2 mM TCEP) overnight. The protein was aliquoted and frozen at −80° C. until further use.
Sirtuin modulating compounds that activated SIRT1 were identified using the assay described above and are shown below in Table 1 for compounds of Formula (III)). The EC1.5 values represent the concentration of test compounds that result in 150% activation of SIRT1. The EC1.5 values for the activating compounds in Table 1 are represented by A (EC1.5<10.0 μM), B (EC1.5 10-25 μM), C (EC1.5>25 μM). The percent maximum fold activation is represented by A (Fold activation>200%) or B (Fold Activation<200%); “NT” means not tested; “ND” mean not determinable.

| Compound | EC1.5 (concentration of test compound that results in 150% activation of SIRT1) | Emax [%] |
| --- | --- | --- |
| O=C(NC1CCCc2ccc(-c3cccc(C(F)(F)F)c3)nc21)c1cccc(N2CCOCC2)n1 (stereo not drawn) [Compound 236] | A (EC1.5<10.0 μM) | > 200 |
| O=C(NC1CCCc2ccc(-c3cccc(C(F)(F)F)c3)nc21)c1cccc(CN2CCCC2)c1 (stereo not drawn) [Compound 237] | B (EC1.5 10-25 μM) | < 200 |
| O=C(NC1CCCc2ccc(-c3cccc(C(F)(F)F)c3)nc21)c1ccnc(CN2CCOCC2)c1 (stereo not drawn) [Compound 238] | C (EC1.5>25 μM) |  |
| O=C(NC1CCCc2ccc(-c3cccc(C(F)(F)F)c3)nc21)c1ccnc(CN2CCCC2)c1 (stereo not drawn) [Compound 239] | C (EC1.5>25 μM) |  |
| O=C(NC1CCCc2ccc(-c3cccc(C(F)(F)F)c3)nc21)c1ccc(CN2CCOCC2)nc1 (stereo not drawn) [Compound 241] | C (EC1.5>25 μM) |  |
| O=C(NC1CCCc2ccc(-c3cccc(C(F)(F)F)c3)nc21)c1cccc(C2CCNC2)c1 (stereo not drawn) [Compound 242] | A (EC1.5<10.0 μM) | > 200 |
| O=C(NC1CCCc2ccc(-c3cccc(C(F)(F)F)c3)nc21)c1cccnc1OCC(O)CO (stereo not drawn) [Compound 243] | C (EC1.5>25 μM) |  |
| O=C(NC1CCCc2ccc(-c3cccc(C(F)(F)F)c3)nc21)c1ccnc(OCC(O)CO)c1 (stereo not drawn) [Compound 244] | A (EC1.5<10.0 μM) | > 200 |
| O=C(NC1CCCc2ccc(-c3cccnc3)nc21)c1cnccn1 (stereo not drawn) [Compound 246] | C (EC1.5>25 μM) |  |
| O=C(NC1CCCc2ccc(-c3ccncc3)nc21)c1cnccn1 (stereo not drawn) [Compound 247] | C (EC1.5>25 μM) |  |
| Cc1ccc(-c2ccc3c(n2)C(NC(=O)c2cnccn2)CCC3)cn1 (stereo not drawn) [Compound 248] | C (EC1.5>25 μM) |  |
| Cc1cc(-c2ccc3c(n2)C(NC(=O)c2cnccn2)CCC3)ccn1 (stereo not drawn) [Compound 249] | C (EC1.5>25 μM) |  |
| CS(=O)(=O)c1cccc(-c2ccc3c(n2)C(NC(=O)c2cnccn2)CCC3)c1 (stereo not drawn) [Compound 250] | C (EC1.5>25 μM) |  |
| O=C(NC1CCCc2ccc(-c3cc(C(F)(F)F)ccc3F)nc21)c1cnccn1 (stereo not drawn) [Compound 251] | A (EC1.5<10.0 μM) | > 200 |
| O=C(NC1CCCc2ccc(-c3cccc(OC(F)(F)F)c3)nc21)c1cnccn1 (stereo not drawn) [Compound 252] | B (EC1.5 10-25 μM) | > 200 |
| O=C(NC1CCCc2ccc(-c3ccccc3C(F)(F)F)nc21)c1cnccn1 (stereo not drawn) [Compound 253] | C (EC1.5>25 μM) |  |
| O=C(NC1CCCc2ccc(-c3ccc(F)c(C(F)(F)F)c3)nc21)c1cnccn1 (stereo not drawn) [Compound 254] | A (EC1.5<10.0 μM) | < 200 |
| O=C(NC1CCCc2ccc(-c3cccc(C(F)(F)F)c3F)nc21)c1cnccn1 (stereo not drawn) [Compound 256] | C (EC1.5>25 μM) |  |
| O=C(NC1CCCc2ccc(-c3cccnc3O)nc21)c1cnccn1 (stereo not drawn) [Compound 257] | C (EC1.5>25 μM) |  |
| CC(C)c1ccccc1-c1ccc2c(n1)C(NC(=O)c1cnccn1)CCC2 (stereo not drawn) [Compound 258] | C (EC1.5>25 μM) |  |
| O=C(NC1CCCc2ccc(-c3ccc(N4CCCC4)cc3)nc21)c1cnccn1 (stereo not drawn) [Compound 259] | C (EC1.5>25 μM) |  |
| O=C(NC1CCCc2ccc(-c3cccc(N4CCCC4)c3)nc21)c1cnccn1 (stereo not drawn) [Compound 260] | C (EC1.5>25 μM) |  |
| O=C(NC1CCCc2ccc(-c3cccc(N4CCOCC4)c3)nc21)c1cnccn1 (stereo not drawn) [Compound 261] | C (EC1.5>25 μM) |  |
